Results published in article PMC4854315, “Discovery of a novel allosteric inhibitor-binding site in ERK5: comparison with the canonical kinase hinge ATP-binding site” (Acta Crystallographica. Section D, Structural Biology, 2016).

Experiments:
Experiment in all cases: Z'-LYTE kinase panel
Type in all cases: biochemical
NEK2 = biological target: T1, NEK2 (Homo sapiens, UniProt P51955)
T1 construct: purchased ThermoFisher (SelectScreen, Z'-LYTE)
T1 sequence (P51955 1-445): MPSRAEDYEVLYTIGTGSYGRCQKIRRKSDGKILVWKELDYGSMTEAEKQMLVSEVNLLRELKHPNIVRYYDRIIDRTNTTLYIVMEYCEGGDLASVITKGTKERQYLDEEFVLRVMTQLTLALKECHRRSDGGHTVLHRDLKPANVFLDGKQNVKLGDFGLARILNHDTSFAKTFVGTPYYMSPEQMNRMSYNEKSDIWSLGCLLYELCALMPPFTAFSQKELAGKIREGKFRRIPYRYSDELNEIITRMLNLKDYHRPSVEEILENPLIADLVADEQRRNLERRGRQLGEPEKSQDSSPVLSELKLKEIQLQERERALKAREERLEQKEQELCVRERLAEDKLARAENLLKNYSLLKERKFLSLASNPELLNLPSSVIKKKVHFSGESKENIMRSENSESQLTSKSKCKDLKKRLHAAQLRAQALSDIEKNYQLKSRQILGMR
Procedure, shortened: (§1)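 Screened at 10 µM against a 225-kinase panel; the Z′-LYTE standard assay gave percentage inhibition values.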

PRKCG (PKC gamma) = biological target: T2, PRKCG (PKC gamma) (Homo sapiens, UniProt P05129)
T2 construct: purchased ThermoFisher (SelectScreen, Z'-LYTE)
Procedure, shortened: as §1

BRSK1 (SAD1) = biological target: T3, BRSK1 (SAD1) (Homo sapiens, UniProt Q8TDC3)
T3 construct: purchased ThermoFisher (SelectScreen, Z'-LYTE)
T3 sequence (Q8TDC3 1-778): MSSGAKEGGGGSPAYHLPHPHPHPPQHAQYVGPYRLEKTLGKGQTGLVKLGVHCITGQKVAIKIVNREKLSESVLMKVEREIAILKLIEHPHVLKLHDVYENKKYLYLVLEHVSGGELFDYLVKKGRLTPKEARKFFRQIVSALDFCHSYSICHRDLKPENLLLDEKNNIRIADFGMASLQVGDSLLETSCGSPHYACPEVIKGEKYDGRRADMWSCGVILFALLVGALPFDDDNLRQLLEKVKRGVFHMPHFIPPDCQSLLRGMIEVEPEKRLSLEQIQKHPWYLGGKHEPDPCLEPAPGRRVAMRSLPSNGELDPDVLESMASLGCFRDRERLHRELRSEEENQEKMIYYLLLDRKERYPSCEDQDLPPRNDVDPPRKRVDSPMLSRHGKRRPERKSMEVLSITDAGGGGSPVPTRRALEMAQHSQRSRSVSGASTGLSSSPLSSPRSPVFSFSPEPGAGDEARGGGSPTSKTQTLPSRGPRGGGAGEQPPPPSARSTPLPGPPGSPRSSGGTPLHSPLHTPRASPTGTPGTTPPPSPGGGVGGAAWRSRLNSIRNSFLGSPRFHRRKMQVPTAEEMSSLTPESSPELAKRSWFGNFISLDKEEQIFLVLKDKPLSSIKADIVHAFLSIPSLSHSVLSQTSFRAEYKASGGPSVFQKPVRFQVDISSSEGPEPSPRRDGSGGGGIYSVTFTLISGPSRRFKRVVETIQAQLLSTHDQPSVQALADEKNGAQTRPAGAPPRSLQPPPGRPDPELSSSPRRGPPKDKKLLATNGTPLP
Procedure, shortened: as §1

GSK3B (GSK3 beta) = biological target: T4, GSK3B (GSK3 beta) (Homo sapiens, UniProt P49841)
T4 construct: purchased ThermoFisher (SelectScreen, Z'-LYTE)
T4 sequence (P49841 whole entry): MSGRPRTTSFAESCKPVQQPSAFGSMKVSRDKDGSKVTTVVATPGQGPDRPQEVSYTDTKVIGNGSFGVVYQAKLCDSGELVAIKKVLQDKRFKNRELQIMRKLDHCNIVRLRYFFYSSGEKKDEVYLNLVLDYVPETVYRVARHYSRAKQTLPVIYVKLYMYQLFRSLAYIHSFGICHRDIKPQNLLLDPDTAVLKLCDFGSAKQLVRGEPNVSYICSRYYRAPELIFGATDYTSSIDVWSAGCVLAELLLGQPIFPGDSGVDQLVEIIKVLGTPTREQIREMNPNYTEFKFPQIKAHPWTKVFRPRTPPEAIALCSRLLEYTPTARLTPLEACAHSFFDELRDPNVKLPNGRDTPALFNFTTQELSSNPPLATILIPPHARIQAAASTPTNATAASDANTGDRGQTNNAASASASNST
Procedure, shortened: as §1

PDGFRB (PDGFR beta) = biological target: T5, PDGFRB (PDGFR beta) (Homo sapiens, UniProt P09619)
T5 construct: purchased ThermoFisher (SelectScreen, Z'-LYTE)
T5 sequence (P09619 33-1106): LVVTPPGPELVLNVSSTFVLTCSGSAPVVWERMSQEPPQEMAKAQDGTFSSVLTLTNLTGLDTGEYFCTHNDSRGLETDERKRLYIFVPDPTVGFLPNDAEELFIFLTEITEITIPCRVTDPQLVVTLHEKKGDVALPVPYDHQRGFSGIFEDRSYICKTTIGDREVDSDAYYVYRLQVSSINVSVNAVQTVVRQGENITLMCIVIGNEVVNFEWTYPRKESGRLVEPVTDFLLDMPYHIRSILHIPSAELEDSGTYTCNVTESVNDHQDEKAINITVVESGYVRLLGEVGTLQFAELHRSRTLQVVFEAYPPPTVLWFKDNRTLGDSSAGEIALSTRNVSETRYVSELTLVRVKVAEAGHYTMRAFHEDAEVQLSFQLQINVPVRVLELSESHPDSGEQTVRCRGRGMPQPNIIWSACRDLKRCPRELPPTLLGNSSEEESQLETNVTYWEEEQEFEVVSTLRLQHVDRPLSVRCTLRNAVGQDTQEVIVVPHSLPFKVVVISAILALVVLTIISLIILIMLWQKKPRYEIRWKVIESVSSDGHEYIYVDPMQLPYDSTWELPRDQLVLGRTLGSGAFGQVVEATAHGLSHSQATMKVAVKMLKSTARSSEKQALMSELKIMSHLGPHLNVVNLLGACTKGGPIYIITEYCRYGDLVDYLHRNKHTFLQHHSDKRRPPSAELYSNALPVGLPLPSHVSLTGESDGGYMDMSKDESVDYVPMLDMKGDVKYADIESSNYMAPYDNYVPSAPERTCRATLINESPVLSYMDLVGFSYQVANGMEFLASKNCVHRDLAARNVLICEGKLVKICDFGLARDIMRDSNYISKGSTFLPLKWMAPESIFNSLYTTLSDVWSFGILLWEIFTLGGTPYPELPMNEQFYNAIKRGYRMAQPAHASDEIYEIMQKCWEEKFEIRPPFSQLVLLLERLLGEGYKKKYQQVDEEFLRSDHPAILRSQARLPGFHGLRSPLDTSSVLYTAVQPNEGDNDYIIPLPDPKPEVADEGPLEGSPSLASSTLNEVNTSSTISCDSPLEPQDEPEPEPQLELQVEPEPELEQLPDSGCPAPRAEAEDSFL
Procedure, shortened: as §1

EPHA8 = biological target: T6, EPHA8 (Homo sapiens, UniProt P29322)
T6 construct: purchased ThermoFisher (SelectScreen, Z'-LYTE)
T6 sequence (P29322 28-1005): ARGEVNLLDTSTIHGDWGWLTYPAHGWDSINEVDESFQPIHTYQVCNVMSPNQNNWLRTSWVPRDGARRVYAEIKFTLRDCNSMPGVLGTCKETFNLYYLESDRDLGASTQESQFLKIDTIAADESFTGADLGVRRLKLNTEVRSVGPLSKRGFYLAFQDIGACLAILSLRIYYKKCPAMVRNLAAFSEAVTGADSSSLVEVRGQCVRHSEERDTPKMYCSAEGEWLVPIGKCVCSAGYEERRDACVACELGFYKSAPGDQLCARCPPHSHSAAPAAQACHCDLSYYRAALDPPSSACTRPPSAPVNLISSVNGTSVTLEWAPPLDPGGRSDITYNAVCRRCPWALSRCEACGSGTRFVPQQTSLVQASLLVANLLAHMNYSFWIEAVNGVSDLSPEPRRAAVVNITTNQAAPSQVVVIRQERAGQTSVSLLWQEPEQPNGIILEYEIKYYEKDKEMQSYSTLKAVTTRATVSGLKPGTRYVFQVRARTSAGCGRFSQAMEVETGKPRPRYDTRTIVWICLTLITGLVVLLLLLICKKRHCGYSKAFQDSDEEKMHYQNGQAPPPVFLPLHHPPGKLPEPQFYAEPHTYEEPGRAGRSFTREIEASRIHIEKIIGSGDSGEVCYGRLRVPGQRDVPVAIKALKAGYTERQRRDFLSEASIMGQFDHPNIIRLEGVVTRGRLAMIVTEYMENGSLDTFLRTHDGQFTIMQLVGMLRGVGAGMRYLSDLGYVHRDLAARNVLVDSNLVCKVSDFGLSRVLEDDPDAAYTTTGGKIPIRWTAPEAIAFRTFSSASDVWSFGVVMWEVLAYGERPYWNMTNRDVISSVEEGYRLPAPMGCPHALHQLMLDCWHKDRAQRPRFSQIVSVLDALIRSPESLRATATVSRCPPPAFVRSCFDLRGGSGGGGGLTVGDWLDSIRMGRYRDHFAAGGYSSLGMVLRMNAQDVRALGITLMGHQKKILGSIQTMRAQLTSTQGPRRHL
Procedure, shortened: as §1

PLK3 = biological target: T7, PLK3 (Homo sapiens, UniProt Q9H4B4)
T7 construct: purchased ThermoFisher (SelectScreen, Z'-LYTE)
Procedure, shortened: as §1

NEK4 = biological target: T8, NEK4 (Homo sapiens, UniProt P51957)
T8 construct: purchased ThermoFisher (SelectScreen, Z'-LYTE)
Procedure, shortened: as §1

BRAF = biological target: T9, BRAF (Homo sapiens, UniProt P15056); details: 10 µM compound; ATP 100
T9 construct: purchased ThermoFisher (SelectScreen, Z'-LYTE)
Procedure, shortened: as §1

CSF1R (FMS) = biological target: T10, CSF1R (FMS) (Homo sapiens, UniProt P07333); details: 10 µM compound, ATP Km app
T10 construct: purchased ThermoFisher (SelectScreen, Z'-LYTE)
T10 sequence (P07333 20-972): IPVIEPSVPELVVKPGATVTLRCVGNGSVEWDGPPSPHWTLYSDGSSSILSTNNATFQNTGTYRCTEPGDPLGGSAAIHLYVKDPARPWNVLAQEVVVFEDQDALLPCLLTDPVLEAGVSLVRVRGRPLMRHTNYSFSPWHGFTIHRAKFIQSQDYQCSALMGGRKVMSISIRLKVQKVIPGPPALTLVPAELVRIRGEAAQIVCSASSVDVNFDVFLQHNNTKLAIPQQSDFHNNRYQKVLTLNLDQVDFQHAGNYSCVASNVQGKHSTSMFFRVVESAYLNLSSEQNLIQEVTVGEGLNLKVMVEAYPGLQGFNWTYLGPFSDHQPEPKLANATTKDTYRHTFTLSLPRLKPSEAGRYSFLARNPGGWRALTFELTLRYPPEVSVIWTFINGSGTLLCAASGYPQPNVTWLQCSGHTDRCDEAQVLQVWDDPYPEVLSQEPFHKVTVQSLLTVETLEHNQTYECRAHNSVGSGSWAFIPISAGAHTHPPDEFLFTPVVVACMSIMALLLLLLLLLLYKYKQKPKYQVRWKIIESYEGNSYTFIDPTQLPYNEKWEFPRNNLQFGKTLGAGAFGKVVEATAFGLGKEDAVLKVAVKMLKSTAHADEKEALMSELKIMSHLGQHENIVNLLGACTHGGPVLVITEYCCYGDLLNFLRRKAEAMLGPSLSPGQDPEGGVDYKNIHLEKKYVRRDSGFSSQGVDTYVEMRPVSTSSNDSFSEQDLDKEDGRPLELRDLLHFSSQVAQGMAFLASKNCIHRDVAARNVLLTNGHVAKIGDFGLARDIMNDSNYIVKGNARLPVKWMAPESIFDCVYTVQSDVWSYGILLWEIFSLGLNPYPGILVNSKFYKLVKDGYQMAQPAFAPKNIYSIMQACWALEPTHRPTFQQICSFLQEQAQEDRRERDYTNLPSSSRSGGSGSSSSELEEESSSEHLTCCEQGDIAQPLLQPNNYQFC
Procedure, shortened: as §1

FLT4 (VEGFR3) = biological target: T11, FLT4 (VEGFR3) (Homo sapiens, UniProt P35916); details: 10 µM compound, ATP Km app
T11 construct: purchased ThermoFisher (SelectScreen, Z'-LYTE)
T11 sequence (P35916 25-1363): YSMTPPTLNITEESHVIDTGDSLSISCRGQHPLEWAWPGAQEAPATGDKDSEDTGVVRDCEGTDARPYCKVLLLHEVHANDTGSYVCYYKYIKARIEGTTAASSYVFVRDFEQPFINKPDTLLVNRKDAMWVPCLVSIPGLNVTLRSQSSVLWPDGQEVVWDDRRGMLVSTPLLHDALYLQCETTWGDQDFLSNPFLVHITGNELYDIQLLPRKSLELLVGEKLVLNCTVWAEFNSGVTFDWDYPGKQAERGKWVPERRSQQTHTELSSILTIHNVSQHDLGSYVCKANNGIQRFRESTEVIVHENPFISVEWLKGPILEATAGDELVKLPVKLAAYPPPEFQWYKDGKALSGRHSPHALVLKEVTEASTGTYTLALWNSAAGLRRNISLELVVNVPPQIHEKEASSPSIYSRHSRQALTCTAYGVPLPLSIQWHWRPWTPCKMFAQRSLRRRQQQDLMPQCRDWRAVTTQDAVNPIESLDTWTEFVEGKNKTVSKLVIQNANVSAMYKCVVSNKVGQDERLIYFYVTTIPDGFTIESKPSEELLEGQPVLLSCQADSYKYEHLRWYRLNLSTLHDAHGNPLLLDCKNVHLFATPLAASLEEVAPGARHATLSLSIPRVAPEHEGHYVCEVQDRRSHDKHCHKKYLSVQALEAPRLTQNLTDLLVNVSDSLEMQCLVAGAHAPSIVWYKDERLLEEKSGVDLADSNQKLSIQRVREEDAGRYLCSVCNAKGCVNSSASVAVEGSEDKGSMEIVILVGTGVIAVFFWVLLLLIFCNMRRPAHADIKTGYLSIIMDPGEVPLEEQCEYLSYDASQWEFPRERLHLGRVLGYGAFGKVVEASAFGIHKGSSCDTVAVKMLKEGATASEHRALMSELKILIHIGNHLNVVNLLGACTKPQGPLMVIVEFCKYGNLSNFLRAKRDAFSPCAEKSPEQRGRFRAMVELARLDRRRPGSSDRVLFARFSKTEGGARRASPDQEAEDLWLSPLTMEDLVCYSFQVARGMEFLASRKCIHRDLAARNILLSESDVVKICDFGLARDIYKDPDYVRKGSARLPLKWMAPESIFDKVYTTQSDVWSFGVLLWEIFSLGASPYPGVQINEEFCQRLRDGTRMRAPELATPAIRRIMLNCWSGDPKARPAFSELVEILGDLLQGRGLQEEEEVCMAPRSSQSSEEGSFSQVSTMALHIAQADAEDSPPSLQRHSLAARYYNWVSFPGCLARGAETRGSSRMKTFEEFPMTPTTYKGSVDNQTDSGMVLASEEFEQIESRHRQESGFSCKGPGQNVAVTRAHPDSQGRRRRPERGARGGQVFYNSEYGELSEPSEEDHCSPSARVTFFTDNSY
Procedure, shortened: as §1

For `Cc1ncc(-c2nc(Nc3ccc(C(=O)NCCN4CCCCC4)cc3)ncc2F)n1C(C)C` [Compound 3], the inhibition at 10 µM (NEK2) was -7.52%, the inhibition at 10 µM (PRKCG (PKC gamma)) was 89% and the inhibition at 10 µM (BRSK1 (SAD1)) was 91%. It also gave an inhibition at 10 µM (GSK3B (GSK3 beta)) of 101%, an inhibition at 10 µM (PDGFRB (PDGFR beta)) of 87% and an inhibition at 10 µM (EPHA8) of 50%. The inhibition at 10 µM (PLK3) was 73%, the inhibition at 10 µM (NEK4) was 23% and the inhibition at 10 µM (BRAF) was 90%. It also gave an inhibition at 10 µM (CSF1R (FMS)) of 94% and an inhibition at 10 µM (FLT4 (VEGFR3)) of 99%.
For `Cc1cc(Nc2nc(N)nn2C(=O)NC(C)C)ccc1Cl` [Compound 5], the inhibition at 10 µM (NEK2) was -3%, the inhibition at 10 µM (PRKCG (PKC gamma)) was 10% and the inhibition at 10 µM (BRSK1 (SAD1)) was 35%. For the same compound, the inhibition at 10 µM (GSK3B (GSK3 beta)) was 79%, the inhibition at 10 µM (PDGFRB (PDGFR beta)) was 10% and the inhibition at 10 µM (EPHA8) was 0.0057%. The inhibition at 10 µM (PLK3) was 18%, the inhibition at 10 µM (NEK4) was 17% and the inhibition at 10 µM (BRAF) was 12%. The inhibition at 10 µM (CSF1R (FMS)) was over 80%, the “CSF1R (FMS) % Inhibition” value (CSF1R (FMS); listed as SN1109056190, 10 µM) was 81% and the inhibition at 10 µM (FLT4 (VEGFR3)) was over 80%. For the same compound, the “FLT4 (VEGFR3) % Inhibition” value (FLT4 (VEGFR3); listed as SN1109056190, 10 µM) was 86%.
In the case of “XMD8-92 [Compound 2, reference compound]”, the “NEK2 % Inhibition” value (NEK2; 10 µM compound, ATP Km app) is reported as -17%, the “PRKCG (PKC gamma) % Inhibition” value (PRKCG (PKC gamma); 10 µM compound, ATP Km app) is reported as 62% and the “BRSK1 (SAD1) % Inhibition” value (BRSK1 (SAD1); 10 µM compound, ATP Km app) is reported as 80%. The “GSK3B (GSK3 beta) % Inhibition” value (GSK3B (GSK3 beta); 10 µM compound, ATP Km app) was 88%, the “PDGFRB (PDGFR beta) % Inhibition” value (PDGFRB (PDGFR beta); 10 µM compound, ATP Km app) was 7% and the “EPHA8 % Inhibition” value (EPHA8; 10 µM compound, ATP Km app) was 23%. For the same compound, the “PLK3 % Inhibition” value (PLK3; 10 µM compound, ATP Km app) was 99%, the “NEK4 % Inhibition” value (NEK4; 10 µM compound, ATP Km app) was 2.63% and the “BRAF % Inhibition” value (BRAF) was 15%. For the same compound, the “CSF1R (FMS) % Inhibition” value (CSF1R (FMS)) was 29% and the “FLT4 (VEGFR3) % Inhibition” value (FLT4 (VEGFR3)) was 4%.
